The results in this text go back to article PMC8881610 (Nature Communications, 2022).

What all share (type): cell-based
For one test, the target named is GCGR (Homo sapiens, UniProt P47871). Kind of test: cAMP accumulation assay, GCGR WT, mutant or modified constructs. Also on record: V5 (C); 6×His (C); expressed in transfected cells; host or cells: HEK293T. To be noted: for EC50 / Emax: HEK293T; for Emax: HEK-293T. Here is the method: Human embryonic kidney 293 cells containing SV40 large T-antigen (HEK293T) were cultured in DMEM (Gibco) supplemented with 10% (v/v) fetal bovine serum (FBS, Gibco), 1 mM sodium pyruvate (Gibco) and 100 units/mL penicillin and 100 μg/mL streptomycin at 37 °C in 5% CO2. Chinese hamster ovary (CHO-K1) cells were cultured in F-12 (Gibco) containing 10% FBS, 100 units/mL penicillin and 100 μg/mL streptomycin at 37 °C in 5% CO2. For cAMP and receptor expression assays, HEK293T cells were seeded into 6-well cell culture plates at a density of 7 × 10^5 cells per well. After overnight incubation, cells were transfected with GIPR, GLP-1R or GCGR construct using Lipofectamine 2000 or Lipofectamine 3000 transfection reagent (Invitrogen). For whole-cell binding assay, CHO-K1 cells were seeded into 96-well fibronectin-treated cell culture plates at a density of 3 × 10^4 cells per well. After overnight incubation, cells were transfected with GIPR, GLP-1R or GCGR construct using Lipofectamine 2000 transfection reagent (Invitrogen). Following 24 h culturing, the transfected cells were ready for use. […]
(§1) For GIPR, GLP-1R and GCGR, multi-targeting agonist stimulated cAMP accumulation was measured by a LANCE Ultra cAMP kit (PerkinElmer). After 24 h culture, the transfected cells were seeded into 384-well microtiter plates at a density of 3,000 cells per well in HBSS supplemented with 5 mM HEPES, 0.1% (w/v) BSA or 0.1% (w/v) casein and 0.5 mM 3-isobutyl-1-methylxanthine. The cells were stimulated with different concentrations of peptide agonists for 40 min at RT. Eu-cAMP tracer and ULight^TM-anti-cAMP were then diluted by cAMP detection buffer and added to the plates separately to terminate the reaction. Plates were incubated at RT for 1 h and the fluorescence intensity measured at 620 nm and […] by an EnVision multilabel plate reader (PerkinElmer).
On the technique in general: Cyclic AMP is a second messenger, typically raised through Gs and lowered through Gi signalling.

In test [1] the target is T1, GIPR (Homo sapiens, UniProt P48546, T345F).
T1 sequence (P48546 22-466 T345F): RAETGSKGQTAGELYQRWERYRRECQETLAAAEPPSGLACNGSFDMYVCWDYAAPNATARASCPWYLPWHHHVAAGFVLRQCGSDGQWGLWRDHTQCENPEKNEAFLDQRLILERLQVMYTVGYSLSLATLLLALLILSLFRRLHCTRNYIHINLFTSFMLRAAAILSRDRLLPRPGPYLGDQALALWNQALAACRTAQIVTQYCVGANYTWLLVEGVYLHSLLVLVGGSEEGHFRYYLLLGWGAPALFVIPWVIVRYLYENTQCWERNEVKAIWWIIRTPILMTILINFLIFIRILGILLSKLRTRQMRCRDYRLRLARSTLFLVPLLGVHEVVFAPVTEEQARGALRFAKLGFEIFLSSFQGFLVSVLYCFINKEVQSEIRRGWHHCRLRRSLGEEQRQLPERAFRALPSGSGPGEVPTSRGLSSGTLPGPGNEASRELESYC
Kind of test: cAMP accumulation assay (LANCE Ultra cAMP kit), GIPR WT, mutant or modified constructs. Also on record: acylated tirzepatide to the full-length or modified; Flag; expressed in transfected cells; host or cells: HEK293T. Particulars: GIPR T345F, HEK293T; for EC50: read-out: cAMP pEC50 (converted). Here is the method:
(§2) Human embryonic kidney 293 cells containing SV40 large T-antigen (HEK293T) were cultured in DMEM (Gibco) supplemented with 10% (v/v) fetal bovine serum (FBS, Gibco), 1 mM sodium pyruvate (Gibco) and 100 units/mL penicillin and 100 μg/mL streptomycin at 37 °C in 5% CO2. Chinese hamster ovary (CHO-K1) cells were cultured in F-12 (Gibco) containing 10% FBS, 100 units/mL penicillin and 100 μg/mL streptomycin at 37 °C in 5% CO2. For cAMP and receptor expression assays, HEK293T cells were seeded into 6-well cell culture plates at a density of 7 × 10^5 cells per well. After overnight incubation, cells were transfected with GIPR, GLP-1R or GCGR construct using Lipofectamine 2000 or Lipofectamine 3000 transfection reagent (Invitrogen). For whole-cell binding assay, CHO-K1 cells were seeded into 96-well fibronectin-treated cell culture plates at a density of 3 × 10^4 cells per well. After overnight incubation, cells were transfected with GIPR, GLP-1R or GCGR construct using Lipofectamine 2000 transfection reagent (Invitrogen). Following 24 h culturing, the transfected cells were ready for use.
(§3) A BRIL fusion protein was added at the N-terminal of the ECD with a TEV protease site and 2GSA linker between them. C-terminal 45 amino acids (Q422-C466) of the receptor were truncated. LgBiT was added at the end of helix 8 with a 15-amino acid (15AA) polypeptide linker in between, followed by a TEV protease cleavage site and an OMBP-MBP tag. […] The construct and various mutants of human GIPR were cloned into pcDNA3.1 vector for cAMP accumulation and whole-cell binding assays.
as §1

Test [2] addresses T2, GIPR (Homo sapiens, UniProt P48546, Y36A).
T2 sequence (P48546 22-466 Y36A): T1 sequence (P48546 22-466 T345F) with Y15A, F324T
Described as above. Also on record: acylated tirzepatide to the full-length or modified; Flag; expressed in transfected cells; host or cells: HEK293T. To be noted: GIPR Y36A, HEK293T; for EC50: read-out: cAMP pEC50 (converted). Here is the method:
as §2, §3, §1

[3] abbreviates: GCGR WT, 0.1% BSA, read-out: cAMP accumulation Emax.
Setting [4] is: GCGR WT, 0.1% casein, read-out: cAMP accumulation Emax.

Molecules are shown by their SMILES. Residue numbers refer to the chain shown, from its start. Read-outs that look alike come from different tables or passages of the source. Where a SMILES comes first, the peptide text is derived from it. [ ]: non-standard residue; d: D form. Aib = CC(C)(N)C(=O)O

Chain of GCGR (P47871 26-477): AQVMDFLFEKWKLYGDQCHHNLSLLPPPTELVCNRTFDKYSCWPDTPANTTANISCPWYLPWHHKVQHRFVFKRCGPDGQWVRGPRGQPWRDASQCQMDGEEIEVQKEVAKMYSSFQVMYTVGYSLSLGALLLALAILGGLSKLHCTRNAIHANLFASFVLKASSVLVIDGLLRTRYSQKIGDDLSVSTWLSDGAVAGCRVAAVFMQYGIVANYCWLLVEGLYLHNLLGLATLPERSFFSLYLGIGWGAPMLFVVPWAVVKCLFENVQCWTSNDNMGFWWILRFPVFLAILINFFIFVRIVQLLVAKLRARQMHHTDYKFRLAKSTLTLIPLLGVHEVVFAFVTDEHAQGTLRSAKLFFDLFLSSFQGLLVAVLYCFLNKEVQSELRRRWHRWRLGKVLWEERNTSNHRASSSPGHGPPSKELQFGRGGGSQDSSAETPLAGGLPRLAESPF

Take `CC(C)C[C@H](NC(=O)[C@H](CC(C)C)NC(=O)[C@H](Cc1c[nH]c2ccccc12)NC(=O)[C@H](CCC(N)=O)NC(=O)[C@@H](NC(=O)[C@H](Cc1ccccc1)NC(=O)[C@H](CC(=O)O)NC(=O)[C@H](CCC(N)=O)NC(=O)[C@H](C)NC(=O)[C@H](C)NC(=O)[C@H](CCCNC(=N)N)NC(=O)[C@H](CCC(=O)O)NC(=O)[C@H](CC(=O)O)NC(=O)[C@H](CC(C)C)NC(=O)[C@H](Cc1ccc(O)cc1)NC(=O)[C@H](CCCCN)NC(=O)[C@H](CO)NC(=O)[C@H](CCCCN)NC(=O)[C@H](CC(=O)O)NC(=O)[C@H](CO)NC(=O)[C@@H](NC(=O)[C@H](Cc1ccccc1)NC(=O)[C@@H](NC(=O)CNC(=O)[C@H](CCC(N)=O)NC(=O)C(C)(C)NC(=O)[C@@H](N)Cc1c[nH]cn1)[C@@H](C)O)[C@@H](C)O)C(C)C)C(=O)N[C@@H](CC(=O)O)C(=O)NCC(=O)NCC(=O)N1CCC[C@H]1C(=O)N[C@@H](CO)C(=O)N[C@@H](CO)C(=O)NCC(=O)N[C@@H](C)C(=O)N1CCC[C@H]1C(=O)N1CCC[C@H]1C(=O)N1CCC[C@H]1C(=O)N[C@@H](CO)C(N)=O` [Non-lipidated peptide 20] (H-H[Aib]QGTFTSDKSKYLDERAAQDFVQWLLDGGPSSGAPPPS-NH2; N-terminus and C-terminus assumed): the EC50 at GCGR (GCGR WT, 0.1% BSA, read-out: cAMP accumulation pEC50 (converted)) was 1950 pM. At GCGR (GCGR, 0.1% BSA), the “reduction of cAMP accumulation vs peptide 20” value is reported as 759 fold. Besides, on GCGR (GCGR, 0.1% casein), the “EC50 for cAMP accumulation relative to peptide 20” value is −1,514 fold. Also, the Emax at GCGR (setting [3]) came to 105 ± 2.16%; on GCGR (setting [4]), 103 ± 1.98%.
On to `CCCCCCCCCCCCCCCC(=O)N[C@@H](CCC(=O)NCCCC[C@H](NC(=O)[C@H](CC(=O)O)NC(=O)[C@H](CO)NC(=O)[C@@H](NC(=O)[C@H](Cc1ccccc1)NC(=O)[C@@H](NC(=O)CNC(=O)[C@H](CCC(N)=O)NC(=O)C(C)(C)NC(=O)[C@@H](N)Cc1c[nH]cn1)[C@@H](C)O)[C@@H](C)O)C(=O)N[C@@H](CO)C(=O)N[C@@H](CCCCN)C(=O)N[C@@H](Cc1ccc(O)cc1)C(=O)N[C@@H](CC(C)C)C(=O)N[C@@H](CC(=O)O)C(=O)N[C@@H](CCC(=O)O)C(=O)N[C@@H](CCCNC(=N)N)C(=O)N[C@@H](C)C(=O)N[C@@H](C)C(=O)N[C@@H](CCC(N)=O)C(=O)N[C@@H](CC(=O)O)C(=O)N[C@@H](Cc1ccccc1)C(=O)N[C@H](C(=O)N[C@@H](CCC(N)=O)C(=O)N[C@@H](Cc1c[nH]c2ccccc12)C(=O)N[C@@H](CC(C)C)C(=O)N[C@@H](CC(C)C)C(=O)N[C@@H](CC(=O)O)C(=O)NCC(=O)NCC(=O)N1CCC[C@H]1C(=O)N[C@@H](CO)C(=O)N[C@@H](CO)C(=O)NCC(=O)N[C@@H](C)C(=O)N1CCC[C@H]1C(=O)N1CCC[C@H]1C(=O)N1CCC[C@H]1C(=O)N[C@@H](CO)C(N)=O)C(C)C)C(=O)O` [Peptide 20], for which the EC50 on GCGR (GCGR WT, read-out: cAMP pEC50 (converted)) is 5.62 pM; on GCGR (GCGR, n = 4, SEM, read-out: cAMP pEC50 ± S.E.M. (converted)), 2.63 pM; on GIPR [1], 0.00794 nM; at GIPR [2], 0.0123 nM. For the same compound, the Emax at GCGR (setting [3]) was found to be 101 ± 1.36%; at GCGR (setting [4]) it was 100.2 ± 0.86%; at GCGR (GCGR WT, read-out: cAMP Emax) it was 99.3 ± 1.73%; at GCGR (GCGR, n = 4, SEM, read-out: cAMP Emax ± S.E.M.) it was 101 ± 1.68%; at GIPR [1] (HEK-293T), 99.6 ± 2.09%; on GIPR [2] (HEK-293T) it was 100 ± 1.62%.
As to `CC[C@H](C)[C@H](NC(=O)[C@H](CC(C)C)NC(=O)[C@H](Cc1c[nH]c2ccccc12)NC(=O)[C@H](CCC(N)=O)NC(=O)[C@@H](NC(=O)[C@H](Cc1ccccc1)NC(=O)[C@H](C)NC(=O)[C@H](CCCCNC(=O)COCCOCCNC(=O)COCCOCCNC(=O)CC[C@H](NC(=O)CCCCCCCCCCCCCCCCCCC(=O)O)C(=O)O)NC(=O)[C@H](CCC(N)=O)NC(=O)[C@H](C)NC(=O)[C@@H](NC(=O)[C@H](CCCCN)NC(=O)[C@H](CC(=O)O)NC(=O)[C@H](CC(C)C)NC(=O)C(C)(C)NC(=O)[C@@H](NC(=O)[C@H](CO)NC(=O)[C@H](Cc1ccc(O)cc1)NC(=O)[C@H](CC(=O)O)NC(=O)[C@H](CO)NC(=O)[C@@H](NC(=O)[C@H](Cc1ccccc1)NC(=O)[C@@H](NC(=O)CNC(=O)[C@H](CCC(=O)O)NC(=O)C(C)(C)NC(=O)[C@@H](N)Cc1ccc(O)cc1)[C@@H](C)O)[C@@H](C)O)[C@@H](C)CC)[C@@H](C)CC)C(C)C)C(=O)N[C@@H](C)C(=O)NCC(=O)NCC(=O)N1CCC[C@H]1C(=O)N[C@@H](CO)C(=O)N[C@@H](CO)C(=O)NCC(=O)N[C@@H](C)C(=O)N1CCC[C@H]1C(=O)N1CCC[C@H]1C(=O)N1CCC[C@H]1C(=O)N[C@@H](CO)C(N)=O` [Tirzepatide], the figures for the EC50 on GIPR [1] and on GIPR [2] were 0.0141 nM and 0.0589 nM, respectively.

A word on the Emax: it is the size of the effect at its maximum, as opposed to the concentration needed.
